Assay results taken from patent publication US7928238B2, “1,2,3,4-tetrahydro-quinoline derivatives as CETP inhibitors” (Janssen Pharmaceutica NV, priority 2006, dated 2011).
Several values for one entry are separate records, joined by “and”; a condition that tells them apart may be missing. Equal values may be shown once.

Target: T1, CETP (Homo sapiens, UniProt P11597)
T1 construct: from tissue; host or cells: human plasma from normal volunteers
T1 sequence (P11597 18-493): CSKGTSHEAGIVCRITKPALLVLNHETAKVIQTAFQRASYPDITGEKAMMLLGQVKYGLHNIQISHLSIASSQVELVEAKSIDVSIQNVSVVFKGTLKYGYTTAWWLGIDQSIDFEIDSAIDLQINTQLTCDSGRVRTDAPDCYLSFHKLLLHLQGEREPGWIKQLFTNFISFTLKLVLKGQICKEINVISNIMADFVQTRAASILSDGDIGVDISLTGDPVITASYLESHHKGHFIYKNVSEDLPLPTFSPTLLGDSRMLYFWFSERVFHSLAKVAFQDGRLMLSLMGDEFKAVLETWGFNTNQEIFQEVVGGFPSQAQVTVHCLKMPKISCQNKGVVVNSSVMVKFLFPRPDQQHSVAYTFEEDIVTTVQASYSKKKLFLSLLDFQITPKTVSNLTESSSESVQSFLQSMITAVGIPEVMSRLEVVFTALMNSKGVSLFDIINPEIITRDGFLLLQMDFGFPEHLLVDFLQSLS
Assay: CETP in vitro assay (Amersham kit TRKQ7005; modified protocol in human plasma, [3H]CE-HDL transfer)
Type: biochemical
Details: for % Inhibition @ 1 μM / inhibition at 1 µM: 1 μM compound; for IC50: from plots of % control versus compound concentration; for inhibition at 1 µM: read-out: % Inhibition @ 1 μM
Procedure: The CETP inhibitory activity of the compounds was determined using a commercially available kit from Amersham Biosciences (Catalog #TRKQ7005).
Briefly, 80 μl of human plasma (obtained from normal volunteers), approximately 25 μg/ml (20 μl) of [^3H]CE-HDL (Amersham Biosciences from kit TRKQ7005) and 1 μl of compound dissolved in DMSO was incubated for at least 4 hrs at 37° C. and non-specific transfer was determined by incubating a corresponding plate at 4° C. (blank). After the incubation period, 10 μl of a solution of 1% Dextralip 50/0.5M MgCl2, pH 7.4 was added, vortexed and incubated at room temperature for 10 min. The plate was then centrifuged for 30 min at 10° C. at 300 rpm in a Sorvall RT6000B centrifuge. Fifty microliters of the supernatant was transferred to a Picoplate (Packard) containing 100 μl of Microscint 40 (Perkin Elmer) and mixed for 30 min using a plate mixer. The radioactivity was counted using a TopCount (Perkin Elmer) and the % control was determined in the samples using the following formula: % transfer relative to vehicle controls (% control)=[cpm blank−cpm test]/cpm blank/cpm control]×100. IC50s were calculated from plots of the % control versus compound concentration.

Row | % Inhibition @ 1 μM | IC50 | inhibition at 1 µM | SMILES
1 | 77% and 72% and 67% and 66% and 62% | 150 nM and 100 nM |  | OC(CN1c2cccc(-c3cccc(OC(F)(F)F)c3)c2CCC1c1cccc(OC(F)(F)F)c1)C(F)(F)F (centres unmarked) [Compound 31, 3-[2,5-Bis-(3-trifluoromethoxy-phenyl)-3,4-dihydro-2H-quinolin-1-yl]-1,1,1-trifluoro-propan-2-ol]
2 | 34% |  |  | OC(CN1c2cccc(-c3cccc(OC(F)(F)F)c3)c2CCC1c1cccc(OC(F)(F)F)c1)C(F)(F)F (centres unmarked) [Compound 32, 3-[2,5-Bis-(3-trifluoromethoxy-phenyl)-3,4-dihydro-2H-quinolin-1-yl]-1,1,1-trifluoro-propan-2-ol]
3 | 68% and 44% | 744 nM |  | OC(CCl)CN1c2cccc(-c3cccc(OC(F)(F)F)c3)c2CCC1c1cccc(OC(F)(F)F)c1 (centres unmarked) [Compound 47, 1-[2,5-Bis-(3-trifluoromethoxy-phenyl)-3,4-dihydro-2H-quinolin-1-yl]-3-chloro-propan-2-ol]
4 | 0% |  |  | OC(CCl)CN1c2cccc(-c3cccc(OC(F)(F)F)c3)c2CCC1c1cccc(OC(F)(F)F)c1 (centres unmarked) [Compound 48, 1-[2,5-Bis-(3-trifluoromethoxy-phenyl)-3,4-dihydro-2H-quinolin-1-yl]-3-chloro-propan-2-ol]
5 | 63% and 77% | 331 nM |  | OC(CF)CN1c2cccc(-c3cccc(OC(F)(F)F)c3)c2CCC1c1cccc(OC(F)(F)F)c1 (centres unmarked) [Compound 49, 1-[2,5-Bis-(3-trifluoromethoxy-phenyl)-3,4-dihydro-2H-quinolin-1-yl]-3-fluoro-propan-2-ol]
6 | 13% |  |  | OC(CF)CN1c2cccc(-c3cccc(OC(F)(F)F)c3)c2CCC1c1cccc(OC(F)(F)F)c1 (centres unmarked) [Compound 50, 1-[2,5-Bis-(3-trifluoromethoxy-phenyl)-3,4-dihydro-2H-quinolin-1-yl]-3-fluoro-propan-2-ol]
7 |  |  | 13% | COC[C@@H](O)CN1c2cccc(-c3cccc(OC(F)(F)F)c3)c2CC[C@@H]1c1cccc(OC(F)(F)F)c1 [Compound 51]
8 |  |  | 0% | COC[C@@H](O)CN1c2cccc(-c3cccc(OC(F)(F)F)c3)c2CC[C@H]1c1cccc(OC(F)(F)F)c1 [Compound 52]
9 | 57% and 77% and 84% | 90 nM and 199 nM and 85 nM |  | C[C@@H](O)CN1c2cccc(-c3cccc(OC(F)(F)F)c3)c2CC[C@@H]1c1cccc(OC(F)(F)F)c1 [Compound 53]
10 |  |  | 13% | C[C@@H](O)CN1c2cccc(-c3cccc(OC(F)(F)F)c3)c2CC[C@H]1c1cccc(OC(F)(F)F)c1 [Compound 54]

The remaining lines, values behind:

Row | SMILES | % Inhibition @ 1 μM | IC50 | inhibition at 1 µM
11 | N#Cc1cccc(C2CCc3c(-c4cccc(OC(F)(F)F)c4)cccc3N2CC(O)C(F)(F)F)c1 (centres unmarked) [Compound 27, 3-[1-(3,3,3-Trifluoro-2-hydroxy-propyl)-5-(3-trifluoromethoxy-phenyl)-1,2,3,4-tetrahydro-quinolin-2-yl]-benzonitrile] | 48% and 38% | 410 nM | 
12 | N#Cc1cccc(C2CCc3c(-c4cccc(OC(F)(F)F)c4)cccc3N2CC(O)C(F)(F)F)c1 (centres unmarked) [Compound 28, 3-[1-(3,3,3-Trifluoro-2-hydroxy-propyl)-5-(3-trifluoromethoxy-phenyl)-1,2,3,4-tetrahydro-quinolin-2-yl]-benzonitrile] | 25% |  | 
13 | OC(CN1c2cccc(-c3cccc(OC(F)(F)F)c3)c2CCC1c1cccc(Cl)c1)C(F)(F)F (centres unmarked) [Compound 29, 3-[2-(3-Chloro-phenyl)-5-(3-trifluoromethoxy-phenyl)-3,4-dihydro-2H-quinolin-1-yl]-1,1,1-trifluoro-propan-2-ol] | 39% | 290 nM | 
14 | OC(CN1c2cccc(-c3cccc(OC(F)(F)F)c3)c2CCC1c1cccc(Cl)c1)C(F)(F)F (centres unmarked) [Compound 30, 3-[2-(3-Chloro-phenyl)-5-(3-trifluoromethoxy-phenyl)-3,4-dihydro-2H-quinolin-1-yl]-1,1,1-trifluoro-propan-2-ol] | 13% |  | 
15 | OC(CN1c2cccc(-c3cccc(OC(F)(F)F)c3)c2CCC1c1cccs1)C(F)(F)F (centres unmarked) [Compound 33, 1,1,1-Trifluoro-3-[2-thiophen-2-yl-5-(3-trifluoromethoxy-phenyl)-3,4-dihydro-2H-quinolin-1-yl]-propan-2-ol] | 28% |  | 
16 | OC(CN1c2cccc(-c3cccc(OC(F)(F)F)c3)c2CCC1c1cccs1)C(F)(F)F (centres unmarked) [Compound 34, 1,1,1-Trifluoro-3-[2-thiophen-2-yl-5-(3-trifluoromethoxy-phenyl)-3,4-dihydro-2H-quinolin-1-yl]-propan-2-ol] | 12% |  | 
17 | CCC1CCc2c(-c3cccc(OC(F)(F)F)c3)cccc2N1CC(O)C(F)(F)F (centres unmarked) [Compound 35, 3-[2-Ethyl-5-(3-trifluoromethoxy-phenyl)-3,4-dihydro-2H-quinolin-1-yl]-1,1,1-trifluoro-propan-2-ol] | 43% and 45% |  | 
18 | CCC1CCc2c(-c3cccc(OC(F)(F)F)c3)cccc2N1CC(O)C(F)(F)F (centres unmarked) [Compound 36, 3-[2-Ethyl-5-(3-trifluoromethoxy-phenyl)-3,4-dihydro-2H-quinolin-1-yl]-1,1,1-trifluoro-propan-2-ol] | 11% and 13% |  | 
19 | OC(CN1c2cccc(-c3cccc(OC(F)(F)F)c3)c2CCC1C1CCCCC1)C(F)(F)F (centres unmarked) [Compound 37, 3-[2-Cyclohexyl-5-(3-trifluoromethoxy-phenyl)-3,4-dihydro-2H-quinolin-1-yl]-1,1,1-trifluoro-propan-2-ol] | 11% |  | 
20 | OC(CN1c2cccc(-c3cccc(OC(F)(F)F)c3)c2CCC1C1CCCCC1)C(F)(F)F (centres unmarked) [Compound 38, 3-[2-Cyclohexyl-5-(3-trifluoromethoxy-phenyl)-3,4-dihydro-2H-quinolin-1-yl]-1,1,1-trifluoro-propan-2-ol] | 2% |  | 
21 | CCC1CCc2c(-c3cccc(OC(F)(F)F)c3)cccc2N1Cc1cccc(OC(F)(F)F)c1 (centres unmarked) [Compound 39, 2-Ethyl-1-(3-trifluoromethoxy-benzyl)-5-(3-trifluoromethoxy-phenyl)-1,2,3,4-tetrahydro-quinoline] |  |  | 17%
22 | C[C@@H](O)CN1c2cccc(-c3cccc(Cl)c3)c2CC[C@@H]1c1cccc(OC(F)(F)F)c1 [Compound 40] | 32% | 150 nM | 37%
23 | C[C@@H](O)CN1c2cccc(-c3cccc(Cl)c3)c2CC[C@H]1c1cccc(OC(F)(F)F)c1 [Compound 41] |  |  | 3%
24 | Oc1cccc(-c2cccc3c2CCC(c2cccc(OC(F)(F)C(F)F)c2)N3CC(O)C(F)(F)F)c1 (centres unmarked) [Compound 42, 3-[2-[3-(1,1,2,2-Tetrafluoro-ethoxy)-phenyl]-1-(3,3,3-trifluoro-2-hydroxy-propyl)-1,2,3,4-tetrahydro-quinolin-5-yl]-phenol] | 97% and 106% | 231 nM | 
25 | Oc1cccc(-c2cccc3c2CCC(c2cccc(OC(F)(F)C(F)F)c2)N3CC(O)C(F)(F)F)c1 (centres unmarked) [Compound 43, 3-[2-[3-(1,1,2,2-Tetrafluoro-ethoxy)-phenyl]-1-(3,3,3-trifluoro-2-hydroxy-propyl)-1,2,3,4-tetrahydro-quinolin-5-yl]-phenol] | 23% |  | 
26 | CC(C)C(O)CN1c2cccc(-c3cccc(OC(F)(F)F)c3)c2CCC1c1cccc(OC(F)(F)F)c1 (centres unmarked) [Compound 45, 1-[2,5-Bis-(3-trifluoromethoxy-phenyl)-3,4-dihydro-2H-quinolin-1-yl]-3-methyl-butan-2-ol] | 74% and 84% | 326 nM | 
27 | CC(C)C(O)CN1c2cccc(-c3cccc(OC(F)(F)F)c3)c2CCC1c1cccc(OC(F)(F)F)c1 (centres unmarked) [Compound 46, 1-[2,5-Bis-(3-trifluoromethoxy-phenyl)-3,4-dihydro-2H-quinolin-1-yl]-3-methyl-butan-2-ol] | 22% |  | 
28 | C[C@@H](O)CN1c2cccc(-c3cccc(F)c3)c2CC[C@@H]1c1cccc(OC(F)(F)F)c1 [Compound 55] | 34% | 110 nM | 39%
29 | C[C@@H](O)CN1c2cccc(-c3cccc(F)c3)c2CC[C@H]1c1cccc(OC(F)(F)F)c1 [Compound 56] |  |  | 0%
30 | OC(CN1c2cccc(-c3cccc(F)c3)c2CCC1c1cccc(OC(F)(F)F)c1)C(F)(F)F (centres unmarked) [Compound 57, 1,1,1-Trifluoro-3-[5-(3-fluoro-phenyl)-2-(3-trifluoromethoxy-phenyl)-3,4-dihydro-2H-quinolin-1-yl]-propan-2-ol] | 92% and 97% and 91% | 59 nM and 253 nM | 
31 | OC(CN1c2cccc(-c3cccc(F)c3)c2CCC1c1cccc(OC(F)(F)F)c1)C(F)(F)F (centres unmarked) [Compound 58, 1,1,1-Trifluoro-3-[5-(3-fluoro-phenyl)-2-(3-trifluoromethoxy-phenyl)-3,4-dihydro-2H-quinolin-1-yl]-propan-2-ol] | 40% |  | 
